Laboratory results taken from PubChem BioAssay AID330 (DTP/NCI, 2004).
“And” between values parts separate entries of the source, which are not always exact repeats. Equal values may be shown once. Toxic doses and inconclusive results are not listed.

Tested on: P388 leukemia ip, CD2F1 mice, survival T/C
Assay: NCI In Vivo Anticancer Drug Screen. Data for tumor model P388 Leukemia (intraperitoneal) in CD2F1 (CDF1) mice
Conditions: endpoint: median survival time, higher = longer survival
How it was run: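 Mice carrying the transplanted tumor received test compound or vehicle. Survival was recorded in each group, and the value is the treated-group measurement divided by that of the vehicle-treated control group.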

[1] = dose: 25.0 mg/kg/injection, schedule: Q01DX005 (ip), vehicle: Klucel (hydroxypropylcellulose) (HPC)
[2] = dose: 50.0 mg/kg/injection, schedule: Q01DX005 (ip), vehicle: Klucel (hydroxypropylcellulose) (HPC)
[3] = dose: 100.0 mg/kg/injection, schedule: Q01DX005 (ip), vehicle: Klucel (hydroxypropylcellulose) (HPC)
[4] = dose: 200.0 mg/kg/injection, schedule: Q01DX005 (ip), vehicle: Klucel (hydroxypropylcellulose) (HPC)
[5] = dose: 60.0 mg/kg/injection, schedule: Q01DX005 (ip), vehicle: Klucel (hydroxypropylcellulose) (HPC)
[6] = dose: 120.0 mg/kg/injection, schedule: Q01DX005 (ip), vehicle: Klucel (hydroxypropylcellulose) (HPC)
[7] = dose: 50.0 mg/kg/injection, schedule: Q01DX009 (ip), vehicle: saline with Tween-80
[8] = dose: 100.0 mg/kg/injection, schedule: Q01DX009 (ip), vehicle: saline with Tween-80
[9] = dose: 200.0 mg/kg/injection, schedule: Q01DX009 (ip), vehicle: saline with Tween-80
[10] = dose: 400.0 mg/kg/injection, schedule: Q01DX009 (ip), vehicle: saline with Tween-80
[11] = dose: 50.0 mg/kg/injection, schedule: Q01DX009 (ip), vehicle: Klucel (hydroxypropylcellulose) (HPC)
[12] = dose: 100.0 mg/kg/injection, schedule: Q01DX009 (ip), vehicle: Klucel (hydroxypropylcellulose) (HPC)

In the case of `CC1(C)CC(O)CC2(C)OC(=O)C=C12` (stereo not drawn), the T/C (dose: 2.5 mg/kg/injection, schedule: Q01DX009 (ip), vehicle: DMSO) is reported as 101 % of control, the T/C (dose: 5.0 mg/kg/injection, schedule: Q01DX009 (ip), vehicle: DMSO) is reported as 103 % of control and the T/C (dose: 10.0 mg/kg/injection, schedule: Q01DX009 (ip), vehicle: DMSO) is reported as 91 % of control.
For `O=S(=O)(O)O.[NH-]CC(N)=O.[NH-]CC(N)=O.[Ni+2]`, the T/C (dose: 1.0 mg/kg/injection, schedule: Q01DX009 (ip), vehicle: saline) was 95 % of control, the T/C (dose: 2.0 mg/kg/injection, schedule: Q01DX009 (ip), vehicle: saline) was 90 % of control and the T/C (dose: 4.0 mg/kg/injection, schedule: Q01DX009 (ip), vehicle: saline) was 95 % of control. The T/C (dose: 8.0 mg/kg/injection, schedule: Q01DX009 (ip), vehicle: saline) was 90 % of control.
`CSc1ccc(/C=N/N=c2ccn(-c3ccc(Cl)cc3)cc2)cc1` was tested, and the T/C (dose: 25.0 mg/kg/injection, schedule: Q01DX001 (ip), vehicle: Klucel (hydroxypropylcellulose) (HPC)) was 100 % of control, the T/C (dose: 50.0 mg/kg/injection, schedule: Q01DX001 (ip), vehicle: Klucel (hydroxypropylcellulose) (HPC)) was 102 % of control and the T/C (dose: 100.0 mg/kg/injection, schedule: Q01DX001 (ip), vehicle: Klucel (hydroxypropylcellulose) (HPC)) was 100 % of control and 91 % of control.
`Nc1nc(=S)c2[nH]c(=S)n(C3OC(CO)C(O)C3O)c2[nH]1` (stereo not drawn) was tested, and the T/C [1] was 100 % of control, the T/C [2] was 105 % of control and the T/C [3] was 103 % of control. For the same molecule, the T/C [4] was 112 % of control.
`CCCCN=C(N)N/N=C(\C)c1ccc(-c2ccccc2)cc1` was tested, and the T/C (dose: 1.25 mg/kg/injection, schedule: Q04DX002 (ip), vehicle: saline with Tween-80) was 102 % of control, the T/C (dose: 2.5 mg/kg/injection, schedule: Q04DX002 (ip), vehicle: saline with Tween-80) was 104 % of control and the T/C (dose: 5.0 mg/kg/injection, schedule: Q04DX002 (ip), vehicle: saline with Tween-80) was 104 % of control.
In the case of `COc1cccc(-c2c(C#N)c(=O)n(C)c3nncn23)c1`, the T/C (dose: 100.0 mg/kg/injection, schedule: Q01DX001 (ip), vehicle: saline with Tween-80) is reported as 97 % of control, the T/C (dose: 200.0 mg/kg/injection, schedule: Q01DX001 (ip), vehicle: saline with Tween-80) is reported as 94 % of control and the T/C (dose: 400.0 mg/kg/injection, schedule: Q01DX001 (ip), vehicle: saline with Tween-80) is reported as 91 % of control.
In the case of `Cc1ccc(C(=O)Nc2c(C)cccc2C)cc1`, the T/C (dose: 60.0 mg/kg/injection, schedule: Q01DX005 (ip), vehicle: saline with Tween-80) is reported as 98 % of control and the T/C (dose: 120.0 mg/kg/injection, schedule: Q01DX005 (ip), vehicle: saline with Tween-80) is reported as 92 % of control.
With `CN(C)c1ncnc2c1ncn2CCn1cnc2c(N(C)C)ncnc21` the T/C (dose: 12.5 mg/kg/injection, schedule: Q01DX005 (ip), vehicle: Klucel (hydroxypropylcellulose) (HPC)) was 97 % of control, the T/C [1] was 100 % of control and the T/C [2] was 100 % of control and 90 % of control. For the same molecule, the T/C [3] was 90 % of control.
`CCSC(C(O)C(O)C(O)C(O)CO)n1cnc2c(SC)ncnc21` (stereo not drawn) was tested, and the T/C (dose: 25.0 mg/kg/injection, schedule: Q01DX009 (ip), vehicle: water) was 99 % of control, the T/C (dose: 50.0 mg/kg/injection, schedule: Q01DX009 (ip), vehicle: water) was 95 % of control and the T/C (dose: 100.0 mg/kg/injection, schedule: Q01DX009 (ip), vehicle: water) was 94 % of control. For the same molecule, the T/C (dose: 200.0 mg/kg/injection, schedule: Q01DX009 (ip), vehicle: water) was 99 % of control and the T/C (dose: 400.0 mg/kg/injection, schedule: Q01DX009 (ip), vehicle: water) was 97 % of control.
With `O=C(O)c1sc(-c2ccccc2)c2c1-c1ccccc1C2=O` the T/C [5] was 98 % of control, the T/C [6] was 96 % of control and the T/C (dose: 240.0 mg/kg/injection, schedule: Q01DX005 (ip), vehicle: Klucel (hydroxypropylcellulose) (HPC)) was 97 % of control.
For `COc1ccc(/C(=C(\c2ccccc2)[N+](=O)[O-])c2ccc(OCCN3CCCC3)cc2)cc1`, the T/C (dose: 25.0 mg/kg/injection, schedule: Q01DX009 (ip), vehicle: saline with Tween-80) was 104 % of control and the T/C [7] was 100 % of control.
For `CCCCCCNP(=O)(N1CC1)N1CC1`, the T/C (dose: 3.13 mg/kg/injection, schedule: Q04DX003 (ip), vehicle: saline) was 104 % of control, the T/C (dose: 10.0 mg/kg/injection, schedule: Q01DX009 (ip), vehicle: saline) was 177 % of control and the T/C (dose: 12.5 mg/kg/injection, schedule: Q04DX003 (ip), vehicle: saline with Tween-80) was 159 % of control. The T/C (dose: 20.0 mg/kg/injection, schedule: Q01DX009 (ip), vehicle: saline) was 227 % of control and the T/C (dose: 25.0 mg/kg/injection, schedule: Q04DX003 (ip), vehicle: saline with Tween-80) was 218 % of control.
`COCc1cnc2nc(N)nc(N)c2n1` was tested, and the T/C (dose: 0.39 mg/kg/injection, schedule: Q01DX009 (ip), vehicle: distilled water + Tween-80) was 99 % of control, the T/C (dose: 0.78 mg/kg/injection, schedule: Q01DX009 (ip), vehicle: distilled water + Tween-80) was 99 % of control and the T/C (dose: 1.56 mg/kg/injection, schedule: Q01DX009 (ip), vehicle: distilled water + Tween-80) was 104 % of control. For the same molecule, the T/C (dose: 3.13 mg/kg/injection, schedule: Q01DX009 (ip), vehicle: distilled water + Tween-80) was 110 % of control.
With `Brc1cccc2[s+]snc12` the T/C (dose: 50.0 mg/kg/injection, schedule: Q01DX005 (ip), vehicle: saline with Tween-80) was 101 % of control, the T/C (dose: 100.0 mg/kg/injection, schedule: Q01DX005 (ip), vehicle: saline with Tween-80) was 105 % of control and the T/C (dose: 200.0 mg/kg/injection, schedule: Q01DX005 (ip), vehicle: saline with Tween-80) was 97 % of control.
`COc1cc(C2N=C(N)N=C(N)N2c2ccc(S(N)(=O)=O)cc2)cc(OC)c1OC` (stereo not drawn) was tested, and the T/C [5] was 103 % of control and the T/C [6] was 103 % of control.
In the case of `Cc1cc(C(=O)O)c(C)c([N+](=O)[O-])c1`, the T/C [7] is reported as 88 % of control, the T/C [8] is reported as 104 % of control and the T/C [9] is reported as 98 % of control. The T/C [10] was 100 % of control.
In the case of `COc1ccc(CSC(=S)Nc2ccc(C)c(Br)c2)cc1`, the T/C (dose: 50.0 mg/kg/injection, schedule: Q01DX009 (ip), vehicle: saline) is reported as 100 % of control, the T/C (dose: 100.0 mg/kg/injection, schedule: Q01DX009 (ip), vehicle: saline) is reported as 97 % of control and the T/C (dose: 100.0 mg/kg/injection, schedule: Q01DX009 (ip), vehicle: suspension in saline) is reported as 91 % of control. The T/C (dose: 200.0 mg/kg/injection, schedule: Q01DX009 (ip), vehicle: saline) was 106 % of control and the T/C (dose: 200.0 mg/kg/injection, schedule: Q01DX009 (ip), vehicle: suspension in saline) was 104 % of control.
`C=CCN(CC=C)CCSC(=S)NCCOC` was tested, and the T/C (dose: 100.0 mg/kg/injection, schedule: Q04DX003 (ip), vehicle: saline with Tween-80) was 100 % of control and the T/C (dose: 200.0 mg/kg/injection, schedule: Q04DX003 (ip), vehicle: saline with Tween-80) was 95 % of control.
`CCCCC(C)C(=O)/C=C/c1ccccc1` (stereo not drawn) was tested, and the T/C [7] was 107 % of control and 120 % of control, the T/C [8] was 108 % of control and 118 % of control and the T/C [9] was 120 % of control. The T/C [10] was 117 % of control.
For `OCc1c(CO)c(C(F)(F)F)n2c1CCC2`, the T/C [11] was 104 % of control and the T/C [12] was 104 % of control.
With `CN1CCN(CC(=O)N/N=C/c2ccc([N+](=O)[O-])o2)CC1` the T/C [11] was 101 % of control and 94 % of control, the T/C [12] was 99 % of control and 101 % of control and the T/C (dose: 200.0 mg/kg/injection, schedule: Q01DX009 (ip), vehicle: Klucel (hydroxypropylcellulose) (HPC)) was 107 % of control.
In the case of `CSC(=S)N1CC(=O)N(C(=S)SC)CC1=O`, the T/C [2] is reported as 87 % of control, the T/C [3] is reported as 92 % of control and the T/C [4] is reported as 86 % of control.
With `CC(=O)OCN(C)N=Nc1ccc(C(C)=O)cc1` the T/C [5] was 106 % of control and 114 % of control and 118 % of control, the T/C [6] was 100 % of control and 109 % of control and 124 % of control and the T/C (dose: 480.0 mg/kg/injection, schedule: Q01DX005 (ip), vehicle: Klucel (hydroxypropylcellulose) (HPC)) was 108 % of control.
`CC1(C)C(=O)OC(n2cc(F)c(=O)[nH]c2=O)C1=O` (stereo not drawn) was tested, and the T/C (dose: 11.25 mg/kg/injection, schedule: Q04DX002 (ip), vehicle: distilled water + Tween-80) was 105 % of control, the T/C (dose: 22.5 mg/kg/injection, schedule: Q04DX002 (ip), vehicle: distilled water + Tween-80) was 105 % of control and the T/C (dose: 45.0 mg/kg/injection, schedule: Q04DX002 (ip), vehicle: distilled water + Tween-80) was 116 % of control. The T/C (dose: 45.0 mg/kg/injection, schedule: Q04DX002 (ip), vehicle: saline with Tween-80) was 110 % of control, the T/C (dose: 90.0 mg/kg/injection, schedule: Q04DX002 (ip), vehicle: distilled water + Tween-80) was 116 % of control and the T/C (dose: 360.0 mg/kg/injection, schedule: Q04DX002 (ip), vehicle: distilled water + Tween-80) was 90 % of control. For the same molecule, the T/C (dose: 360.0 mg/kg/injection, schedule: Q04DX002 (ip), vehicle: saline with Tween-80) was 160 % of control.
